One data set concerns the target T1, CB2 receptor (Mus musculus, UniProt P47936).
T1 construct: membranes were prepared from frozen mouse spleen; from tissue; host or cells: mouse spleen
As to the kind of experiment: CB2 receptor binding assay ([3H] CP-55,940 displacement, mouse spleen membranes). As to the method: (§1) Membranes, previously frozen at −80° C., were thawed on ice. To the stirred suspension was added three volumes of TME (25 mM Tris-HCl buffer, 5 mM MgCl2 and 1 mM EDTA) at a pH 7.4. The suspension was incubated at 4° C. for 30 min. At the end of the incubation, the membranes were pelleted and washed three times with TME.
The treated membranes were subsequently used in the binding assay described below. Approximately 30 μg of membranes were incubated in silanized 96-well microtiter plate with TME containing 0.1% essentially fatty acid-free bovine serum albumin (BSA), 0.8 nM [^3H] […] Radioactivity was detected using MicroScint 20 scintillation cocktail added directly to the dried filterplates, and the filterplates were counted using a Packard Instruments Top-Count. […] Data collected from three independent experiments performed with duplicate determinations was normalized between 100% and 0% specific binding for [^3H] […] The normalized data was analyzed using a 4-parameter nonlinear logistic equation to yield IC50 values.
Silanized centrifuge tubes were used throughout to minimize receptor loss due to adsorption. The CB2 binding assay was conducted in the same manner as for the CB1 binding assay. The binding affinities (Ki) were also expressed in nanomoles (nM).

The target in another data set is T2, CB1 cannabinoid receptor (Rattus norvegicus, UniProt P20272).
T2 construct: membranes were prepared from rat forebrain membranes; from tissue; host or cells: rat forebrain
T2 sequence (P20272 whole entry): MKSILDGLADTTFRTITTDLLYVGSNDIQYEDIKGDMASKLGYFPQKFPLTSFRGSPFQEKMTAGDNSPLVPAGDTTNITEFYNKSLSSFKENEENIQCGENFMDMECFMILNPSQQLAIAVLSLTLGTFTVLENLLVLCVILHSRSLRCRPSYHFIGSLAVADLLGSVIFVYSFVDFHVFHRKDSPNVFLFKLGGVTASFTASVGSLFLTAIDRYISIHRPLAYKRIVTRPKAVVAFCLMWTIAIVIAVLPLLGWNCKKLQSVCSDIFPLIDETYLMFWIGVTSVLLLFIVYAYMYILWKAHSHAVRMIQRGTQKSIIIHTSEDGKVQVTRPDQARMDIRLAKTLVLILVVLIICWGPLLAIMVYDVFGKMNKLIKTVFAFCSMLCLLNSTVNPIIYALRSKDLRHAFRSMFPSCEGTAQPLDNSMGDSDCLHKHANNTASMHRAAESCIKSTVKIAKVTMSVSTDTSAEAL
Briefly: CB1 receptor binding assay ([3H] CP-55,940 displacement, rat forebrain membranes). The following applies: 0.8 nM [3H] CP-55,940. As to the method:
Some of the inventive compounds were tested for CB2 receptor binding affinity and for CB1 receptor affinity (to determine selectivity for the CB2 receptor). As used herein, “binding affinity” is represented by the Ki value which is the inhibition constant correlated with the concentration of an analog required to occupy the 50% of the total number (Bmax) of the receptors. The lower the Ki value the higher the binding affinity. […] For the CB1 receptor binding studies, membranes were prepared from rat forebrain membranes according to the procedure of P. R. Dodd et al, A Rapid Method for Preparing Synaptosomes: Comparison with Alternative Procedures, Brain Res., 107-118 (1981). The binding of the novel analogues to the CB1 cannabinoid receptor was assessed as described in W. A. Devane et al, Determination and Characterization of a Cannabinoid Receptor in a Rat Brain, Mol. Pharmacol., 34, 605-613 (1988) and A. Charalambous et al, 5′-azido Δ^8−THC: A Novel Photoaffinity Label for the Cannabinoid Receptor, J. Med. Chem., 35, 3076-3079 (1992) with the following changes. The above articles are incorporated by reference herein.
as §1
The treated membranes were subsequently used in the binding assay described below. Approximately 30 μg of membranes were incubated in silanized 96-well microtiter plate with TME containing 0.1% essentially fatty acid-free bovine serum albumin (BSA), 0.8 nM [^3H] CP-55,940, and various concentrations of test materials in a final volume of 200 μL. The assays were incubated for 1 hour at 30° C. and then immediately filtered using Packard Filtermate 196 harvester and Whatman GF/C filterplates and washed with wash buffer (TME) containing 0.5% BSA. Radioactivity was detected using MicroScint 20 scintillation cocktail added directly to the dried filterplates, and the filterplates were counted using a Packard Instruments Top-Count. Nonspecific binding was assessed using 100 nM CP-55,940. Data collected from three independent experiments performed with duplicate determinations was normalized between 100% and 0% specific binding for [^3H] CP-55,940, determined using buffer and 100 nM CP-55,940. The normalized data was analyzed using a 4-parameter nonlinear logistic equation to yield IC50 values. Data from at least two independent experiments performed in duplicate was used to calculate IC50 values which were converted to Ki values using the assumptions of Cheng et al, Relationship Between the Inhibition Constant (Ki) and the concentration of Inhibitor which causes 50% Inhibition (IC50) of an Enzymatic Reaction, Biochem. Pharmacol., 22, 3099-3102, (1973), which is incorporated by reference herein.

Data set [1] in a line: Fluorescence assay protocol (absorption, excitation and emission scans in MeOH). It counts as physicochemical. As to the method: The fluorescent properties of some of the inventive compounds were examined using the following fluorescence assay protocol. All samples were processed in the same manner and diluted in JT BAKER PHOTREX Grade MeOH. Cuvettes and flasks were cleaned and rinsed with distilled water then rinsed twice with MeOH. Samples were kept in the freezer prior to testing. NSG Precision Quartz Cuvettes were used for absorption and spectral scans. Samples were diluted with methanol to a final volume of 5 mL. A 100× dilution of the samples in MeOH was performed. Absorption spectra were run using a Beckman DU-40 Spectrophotometer. Guided by absorption spectra, excitation and emission scans were run using an ISA Fluoromax-2 Fluorometer.
500 μL of MeOH was added into sample vial containing about 1 mg of testing compound, and aspirated with pipette to mix. 500 μL sample aliquot was then placed into 5 mL volumetric flask and brought up to volume with MeOH, and 5 mL was used as stock. Serial dilutions in 50 mL volumetric flasks were performed until final concentration of 100× reached. Dilution protocol was repeated for each sample. After dilution, 2.5 mL of sample was placed into a 3 mL Quartz cuvette and the cuvette was placed in ISA Fluoromax-2 Fluorometer. Absorption scan was run in Beckman DU-40 Spectrophotometer. Excitation and emission scans were run and spectral data were collected.

Where [2] appears, read: mouse spleen membranes, [3H] CP-55,940, read-out: CB2 Ki.

Each structure is given as a SMILES string. Where two headings read alike, the source gives them in different places.

T1 sequence (P47936 whole entry): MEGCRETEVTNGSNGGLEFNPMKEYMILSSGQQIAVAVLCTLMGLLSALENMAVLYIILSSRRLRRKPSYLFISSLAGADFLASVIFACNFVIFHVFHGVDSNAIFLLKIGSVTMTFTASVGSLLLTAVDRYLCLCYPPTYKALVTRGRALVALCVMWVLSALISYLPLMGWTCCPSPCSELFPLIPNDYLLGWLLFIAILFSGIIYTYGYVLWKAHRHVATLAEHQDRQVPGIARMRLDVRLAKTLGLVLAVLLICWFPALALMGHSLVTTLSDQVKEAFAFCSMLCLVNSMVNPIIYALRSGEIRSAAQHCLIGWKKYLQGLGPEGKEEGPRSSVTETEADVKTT

The term Ki denotes the dissociation constant of the complex between target and ligand, obtained from inhibition or displacement. For `CCCCCCCC(C)(C)c1cc(OC)c2c3c(c(=O)oc2c1)CCC(=O)C3` [Compound 19], the Ki was determined as 1 nM on CB2 receptor (setting [2]) and 40 nM at CB1 cannabinoid receptor.
With `CCCCCCN(C)c1cc(O)c2c3c(c(=O)oc2c1)CCC(C)C3` (centres unmarked) [Compound 5], in data set [1], the “Absorbance Peak” value was found to be 364 nm, the “Fluorescence Emission Peak” value amounted to 460 nm, the “Fluorescence Excitation Peak” value is reported as 368 nm and the “Mol Extinction” value was 18600 mol⁻¹ cm⁻¹ L⁻¹. Besides, the “Stoke's Shift” value in data set [1] amounted to 92 nm. Moreover, the Ki at CB2 receptor (setting [2]) is 1660 nM. Besides, the affinity at CB1 cannabinoid receptor, expressed as Ki, was 2000 nM.
For the molecule `CCCCCCC(C)Oc1cc(OC(=O)CCCCN2CCOCC2)c2c3c(c(=O)oc2c1)CCC(=O)C3` (centres unmarked) [Compound 20], the Ki at CB2 receptor (setting [2]) is 0.6 nM; at CB1 cannabinoid receptor it was 6 nM.
For the molecule `CCCCCCC(C)Oc1cc(O)c2c3c(c(=O)oc2c1)CCC(C)C3` (centres unmarked) [Compound 3], the Ki is 6 nM at CB2 receptor (setting [2]) and 30 nM on CB1 cannabinoid receptor.
For `CCCCCCC(C)(C)c1cc(O)c2c(c1)oc(=O)c1cc(O)c(O)cc12` [Compound 48], the Ki worked out at 101 nM on CB2 receptor (setting [2]) and 1950 nM on CB1 cannabinoid receptor.
Take `CCCCCCC(C)(C)c1cc(OC)c2c(c1)oc(=O)c1ccncc12` [Compound 49]: the Ki at CB2 receptor (setting [2]) was 35.4 nM; at CB1 cannabinoid receptor it was 3760 nM.
As to `CCCCCCCN(C)c1cc(O)c2c(c1)oc(=O)c1ccc(OC)cc12` [Compound 16], in data set [1], the “Absorbance Peak” value amounted to 317 nm, the “Fluorescence Emission Peak” value is recorded as 498 nm, the “Fluorescence Excitation Peak” value was determined as 321 nm and the “Mol Extinction” value amounted to 21800 mol⁻¹ cm⁻¹ L⁻¹. Moreover, the “Stoke's Shift” value in data set [1] is on record as 177 nm. This molecule also yielded a Ki on CB2 receptor of 148 nM. For the same molecule, on CB1 cannabinoid receptor, the affinity corresponds to a Ki of 1300 nM.
On to `CCCCCCCN(C)c1cc(O)c2c(c1)oc(=O)c1ccc(C)cc12` [Compound 13], for which, in data set [1], the “Absorbance Peak” value is on record as 316 nm, the “Fluorescence Emission Peak” value was determined as 519 nm, the “Fluorescence Excitation Peak” value was found to be 319 nm and the “Mol Extinction” value was determined as 22700 mol⁻¹ cm⁻¹ L⁻¹. Moreover, the “Stoke's Shift” value in data set [1] came out at 200 nm. Besides, the Ki at CB2 receptor (setting [2]) was found to be 16 nM. This molecule also had a Ki at CB1 cannabinoid receptor of 140 nM.
`CCCCCCCN(C)c1cc(O)c2c(c1)oc(=O)c1ccc(C(F)(F)F)cc12` [Compound 11]: the Ki stood at 1680 nM at CB2 receptor (setting [2]) and 6680 nM on CB1 cannabinoid receptor.
For `CCCCCCC(C)(C)c1cc(O)c2c(c1)oc(=O)c1ccccc12` [Compound 47], the Ki came to 6.6 nM on CB2 receptor (setting [2]) and 4790 nM at CB1 cannabinoid receptor.
Regarding `CCCCCCCN(C)c1cc(OC)c2c(c1)oc(=O)c1ccc(C(F)(F)F)cc12` [Compound 12], the Ki stood at 1480 nM on CB2 receptor (setting [2]) and 6360 nM at CB1 cannabinoid receptor.
Consider `CCCCCCC(C)Oc1cc(O)c2c3c(c(=O)oc2c1)CCC(=O)C3` (centres unmarked) [Compound 17], for which the inhibition constant Ki was determined as 0.4 nM at CB2 receptor and 304 nM at CB1 cannabinoid receptor.
On to `CCCCCCCN(C)c1cc(O)c2c(c1)oc(=O)c1ccc(O)cc12` [Compound 15], for which, in data set [1], the “Absorbance Peak” value is reported as 318 nm, the “Fluorescence Emission Peak” value came to 502 nm, the “Fluorescence Excitation Peak” value was 320 nm and the “Mol Extinction” value was 23400 mol⁻¹ cm⁻¹ L⁻¹. For the same molecule, the “Stoke's Shift” value in data set [1] was determined as 182 nm. At CB2 receptor (setting [2]), the Ki was determined as 23 nM. The Ki on CB1 cannabinoid receptor was 990 nM.
As to `CCCCCCCN(C)c1cc(O)cc2oc(=O)c3c(c12)CC(C)CC3` (centres unmarked) [Compound 8], the results for the Ki at CB2 receptor and at CB1 cannabinoid receptor were 824 nM and 2580 nM, respectively.
With `CCCCCCCN(C)c1cc(OC)c2c(c1)oc(=O)c1ccc(C)cc12` [Compound 14], in data set [1], the “Absorbance Peak” value is 405 nm, the “Fluorescence Emission Peak” value stood at 465 nm, the “Fluorescence Excitation Peak” value came out at 405 nm and the “Mol Extinction” value is 11400 mol⁻¹ cm⁻¹ L⁻¹. The “Stoke's Shift” value in data set [1] amounted to 60 nm. Also, on CB2 receptor (setting [2]), the Ki came out at 90 nM. On CB1 cannabinoid receptor, the affinity, expressed as Ki, was 1260 nM.
In the case of `CCCCCCc1cc2c3c(c(=O)oc2cc1O)CCC(C)C3` (centres unmarked) [Compound 1], the values for the Ki at CB2 receptor (setting [2]) and on CB1 cannabinoid receptor were 5630 nM and 8610 nM, respectively.
As to `CCCCCCCN(C)c1cc(O)c2c3c(c(=O)oc2c1)CCC(C)C3` (centres unmarked) [Compound 6], in data set [1], the “Absorbance Peak” value came out at 364 nm, the “Fluorescence Emission Peak” value is recorded as 460 nm, the “Fluorescence Excitation Peak” value was 367 nm and the “Mol Extinction” value was 18000 mol⁻¹ cm⁻¹ L⁻¹. Besides, in data set [1], the “Stoke's Shift” value was 93 nm. On CB2 receptor (setting [2]), the Ki turned out to be 128 nM. In addition, on CB1 cannabinoid receptor, the Ki was determined as 122 nM.
On to `CCCCCCCN(C)c1cc2oc(=O)c3ccc(C)cc3c2c(O)c1Br` [Compound 9], for which the figures for the Ki at CB2 receptor (setting [2]) and at CB1 cannabinoid receptor were 3 nM and 50 nM, respectively.
Turning to `CCCCCC(C)Oc1cc(O)c2c3c(c(=O)oc2c1)CCC(C)C3` (centres unmarked) [Compound 2], in data set [1], the “Absorbance Peak” value is on record as 320 nm, the “Fluorescence Emission Peak” value is on record as 423 nm, the “Fluorescence Excitation Peak” value was 326 nm and the “Mol Extinction” value was 13900 mol⁻¹ cm⁻¹ L⁻¹. Moreover, the “Stoke's Shift” value in data set [1] came to 97 nm. Besides, the Ki on CB2 receptor (setting [2]) was found to be 25 nM. This molecule also displayed a Ki at CB1 cannabinoid receptor of 150 nM.
`CCCCCCCN(C)c1cc(O)c2c(oc(=O)c3ccc(C)cc32)c1Br` [Compound 10]: the values for the Ki at CB2 receptor (setting [2]) and at CB1 cannabinoid receptor were 0.7 nM and 9 nM, respectively.
Turning to `CCCCCCN(C)c1cc(O)cc2oc(=O)c3c(c12)CC(C)CC3` (centres unmarked) [Compound 7], the inhibition constant Ki came out at 288 nM at CB2 receptor (setting [2]) and 160 nM at CB1 cannabinoid receptor.
For `CCCCCCCC(C)(C)c1cc(OC)c2c3c(c(=O)oc2c1)CCC(C)C3` (centres unmarked) [Compound 32], in data set [1], the “Absorbance Peak” value amounted to 327 nm, the “Fluorescence Emission Peak” value turned out to be 390 nm, the “Fluorescence Excitation Peak” value is on record as 330 nm and the “Stoke's Shift” value is given as 60 nm.
As to `CCCCCCC(C)Oc1cc(OC)c2c3c(c(=O)oc2c1)CCC(=O)C3` (centres unmarked) [Compound 18], the Ki stood at 355 nM on CB2 receptor (setting [2]) and 8430 nM at CB1 cannabinoid receptor.

These data come from US20050074408A1, “Keto cannabinoids with therapeutic indications” (University of Connecticut, priority 2002, published 2005).
